Reference: patent US6355799B1, “Substituted benzene compounds, process for their preparation, and herbicidal and defoliant compositions containing them” (ISK Americas Incorporated, priority 1997, dated 2002)

Columns and labels:
Format in all cases: in vivo
[1] = system: upland rice (Oryza sp., var. Tebonnet, RICE); assay: Post-emerge test, crop safety; settings: post-emerge, 14 days after application, rating scale 0-100
Summary of the method: (§1)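 Applied at 15–1000 g ai/ha from acetone in 187 l/ha spray volume. Post-emergence applications included 0.25% v/v non-ionic surfactant and reached plants sown 8–21 days before. Pre-emergence applications were incorporated by surface watering. Efficacy or crop damage was rated on a 0–100 scale after 14 days.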

[2] = system: field corn (Zea mays L., var. Dekalb 535, CORN); assay: Post-emerge test, crop safety; settings: post-emerge, 14 days after application, rating scale 0-100
Summary of the method: as §1

[3] = system: redroot pigweed (Amaranthus retroflexus, AMARE); assay: Pre-emerge test, greenhouse herbicide activity screening; settings: pre-emerge, 14 days after application, scale 0-100
Summary of the method: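 Rating: 0–100 visual injury, 14 DAA. Application: acetone, 187 l/ha, 15–1000 g ai/ha, flat-fan track sprayer with nozzle 40–45 cm above soil or canopy. Post-emerge runs used 0.25% v/v surfactant on 2–3 leaf plants.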

[4] = system: large crabgrass (Digitaria sanguinalis, DIGSA); assay: Post-emerge test, greenhouse herbicide activity screening; settings: post-emerge, 14 days after application, rating scale 0-100
Summary of the method: (§2)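 Compounds in acetone were track-sprayed at 187 l/ha, 15–1000 g ai/ha, onto sandy loam pots. Pre-emerge seeds were sown one day before spraying, with surface watering afterwards. Post-emerge plants were at the 2–3 leaf stage and sprayed with 0.25% v/v non-ionic surfactant. Injury was rated 0–100 at 14 days.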

[5] = system: barnyardgrass (Echinochloa crus-galli, ECHCG); assay: as above; settings: post-emerge, 14 days after application, rating scale 0-100
Summary of the method: as §2

[6] = system: green foxtail (Setaria viridis, SETVI); assay: as above; settings: post-emerge, 14 days after application, rating scale 0-100
Summary of the method: as §2

[7] = system: redroot pigweed (Amaranthus retroflexus, AMARE); assay: as above; settings: post-emerge, 14 days after application, rating scale 0-100
Summary of the method: as §2

[8] = system: sicklepod (Cassia obtusifolia, CASOB); assay: as above; settings: post-emerge, 14 days after application, rating scale 0-100
Summary of the method: as §2

[9] = system: johnsongrass (Sorghum halepense, SORHA); assay: as above; settings: post-emerge, 14 days after application, rating scale 0-100
Summary of the method: as §2

[10] = system: velvetleaf (Abutilon theophrasti, ABUTH); assay: as above; settings: post-emerge, 14 days after application, rating scale 0-100
Summary of the method: as §2

[11] = system: lambsquarters (Chenopodium album, CHEAL); assay: as above; settings: post-emerge, 14 days after application, rating scale 0-100
Summary of the method: as §2

[12] = system: ivyleaf morningglory (Ipomoea hederacea, IPOHE); assay: as above; settings: post-emerge, 14 days after application, rating scale 0-100
Summary of the method: as §2

[13] = system: large crabgrass (Digitaria sanguinalis, DIGSA); assay: Pre-emerge test, greenhouse herbicide activity screening; settings: pre-emerge, 14 days after application, scale 0-100
Summary of the method: as §1

[14] = system: common ragweed (Ambrosia artemisizfolia L., AMBEL); assay: as above; settings: pre-emerge, 14 days after application, scale 0-100
Summary of the method: as §1

[15] = system: barnyardgrass (Echinochloa crus-galli, ECHCG); assay: as above; settings: pre-emerge, 14 days after application, scale 0-100
Summary of the method: as §1

[16] = system: green foxtail (Setaria viridis, SETVI); assay: as above; settings: pre-emerge, 14 days after application, scale 0-100
Summary of the method: as §1

[17] = system: sicklepod (Cassia obtusifolia, CASOB); assay: as above; settings: pre-emerge, 14 days after application, scale 0-100
Summary of the method: as §1

[18] = system: johnsongrass (Sorghum halepense, SORHA); assay: as above; settings: pre-emerge, 14 days after application, scale 0-100
Summary of the method: as §1

[19] = system: velvetleaf (Abutilon theophrasti, ABUTH); assay: as above; settings: pre-emerge, 14 days after application, scale 0-100
Summary of the method: as §1

[20] = system: lambsquarters (Chenopodium album, CHEAL); assay: as above; settings: pre-emerge, 14 days after application, scale 0-100
Summary of the method: as §1

[21] = system: ivyleaf morningglory (Ipomoea hederacea, IPOHE); assay: as above; settings: pre-emerge, 14 days after application, scale 0-100
Summary of the method: as §1

[22] = system: upland rice (Oryza sp., var. Tebonnet, RICE); assay: Pre-emerge test, crop safety; settings: pre-emerge, 14 days after application, scale 0-100
Summary of the method: as §1

[23] = system: field corn (Zea mays L., var. Dekalb 535, CORN); assay: Pre-emerge test, crop safety; settings: pre-emerge, 14 days after application, scale 0-100
Summary of the method: as §1

Cc1c(Cl)cc(F)c(-n2c(=O)cc(C(F)(F)F)n(C)c2=O)c1NC(=O)C=Cc1ccccc1 [2-123]
35: phytotoxicity rating CORN ([2]; 63 g ai/ha)
90: phytotoxicity rating CASOB ([17]; 250 g ai/ha)
15: phytotoxicity rating CORN (crop damage) ([23]; 250 g ai/ha)
20: phytotoxicity rating ECHCG ([5]; 250 g ai/ha) | phytotoxicity rating SETVI ([6]; 63 g ai/ha)
60: phytotoxicity rating RICE ([1]; 63 g ai/ha) | phytotoxicity rating DIGSA ([13]; 63 g ai/ha) | phytotoxicity rating CASOB ([17]; 63 g ai/ha)
10: phytotoxicity rating DIGSA ([4]; 63 g ai/ha) | phytotoxicity rating ECHCG ([5]; 63 g ai/ha) | phytotoxicity rating SORHA ([9]; 63 g ai/ha)
30: phytotoxicity rating DIGSA ([4]; 250 g ai/ha) | phytotoxicity rating SETVI ([6]; 250 g ai/ha) | phytotoxicity rating SORHA ([9]; 250 g ai/ha) | phytotoxicity rating SORHA ([18]; 63 g ai/ha) | phytotoxicity rating RICE (crop damage) ([22]; 63 g ai/ha)
0: phytotoxicity rating CORN (crop damage) ([23]; 63 g ai/ha)
40: phytotoxicity rating CORN ([2]; 250 g ai/ha) | phytotoxicity rating ECHCG ([15]; 63 g ai/ha)
80: phytotoxicity rating ECHCG ([15]; 250 g ai/ha) | phytotoxicity rating SETVI ([16]; 63 g ai/ha) | phytotoxicity rating RICE (crop damage) ([22]; 250 g ai/ha)
95: phytotoxicity rating AMBEL ([14]; 63 g ai/ha)
70: phytotoxicity rating RICE ([1]; 250 g ai/ha) | phytotoxicity rating SORHA ([18]; 250 g ai/ha)
100: phytotoxicity rating AMARE ([3]; 63 g ai/ha) | phytotoxicity rating AMARE ([3]; 250 g ai/ha) | phytotoxicity rating AMARE ([7]; 63 g ai/ha) | phytotoxicity rating AMARE ([7]; 250 g ai/ha) | phytotoxicity rating CASOB ([8]; 63 g ai/ha) | phytotoxicity rating CASOB ([8]; 250 g ai/ha) | phytotoxicity rating ABUTH ([10]; 63 g ai/ha) | phytotoxicity rating ABUTH ([10]; 250 g ai/ha) | phytotoxicity rating CHEAL ([11]; 63 g ai/ha) | phytotoxicity rating CHEAL ([11]; 250 g ai/ha) | phytotoxicity rating IPOHE ([12]; 63 g ai/ha) | phytotoxicity rating IPOHE ([12]; 250 g ai/ha) | phytotoxicity rating DIGSA ([13]; 250 g ai/ha) | phytotoxicity rating AMBEL ([14]; 250 g ai/ha) | phytotoxicity rating SETVI ([16]; 250 g ai/ha) | phytotoxicity rating ABUTH ([19]; 63 g ai/ha) | phytotoxicity rating ABUTH ([19]; 250 g ai/ha) | phytotoxicity rating CHEAL ([20]; 63 g ai/ha) | phytotoxicity rating CHEAL ([20]; 250 g ai/ha) | phytotoxicity rating IPOHE ([21]; 63 g ai/ha) | phytotoxicity rating IPOHE ([21]; 250 g ai/ha)
